# Residue numbers refer to the chain shown, from its start. Read-outs that look alike come from different tables or passages of the source.
# Experiments:
# ETB receptor (wild type) = target: T1, ETB receptor (wild type) (Homo sapiens, UniProt P24530); test: TGFα shedding assay, antagonist activity against ET-1 (0.5 nM)-induced AP-TGFα release; format: cell-based; details: Supplementary Fig. 5d, ETB (WT)
# T1 construct: expressed in transfected cells; host or cells: HEK293A
# T1 sequence (P24530 27-442): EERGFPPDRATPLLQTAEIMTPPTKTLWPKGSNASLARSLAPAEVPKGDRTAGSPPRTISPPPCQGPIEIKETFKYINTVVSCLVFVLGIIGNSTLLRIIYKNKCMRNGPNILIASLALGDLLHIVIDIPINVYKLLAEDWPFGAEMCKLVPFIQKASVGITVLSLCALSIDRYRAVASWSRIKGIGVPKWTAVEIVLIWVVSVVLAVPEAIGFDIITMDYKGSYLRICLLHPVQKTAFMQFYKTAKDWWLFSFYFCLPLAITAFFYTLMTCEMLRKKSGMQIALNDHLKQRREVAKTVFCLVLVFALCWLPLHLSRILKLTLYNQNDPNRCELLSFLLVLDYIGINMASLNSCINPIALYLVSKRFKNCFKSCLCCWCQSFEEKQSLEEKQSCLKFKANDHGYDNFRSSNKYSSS
# Procedure: The TGFα shedding assay, which measures the activation of Gq/11 and G12/13 signaling, was performed as described previously. Briefly, a plasmid encoding an ETB construct with an internal FLAG epitope tag or an ETA construct was transfected, together with a plasmid encoding alkaline phosphatase (AP)-tagged TGFα (AP-TGFα), into HEK293A cells by using a polyethylenimine (PEI) transfection reagent (1 µg ETR plasmid, 2.5 µg AP-TGFα plasmid, and 25 µl of 1 mg per ml PEI solution per 10-cm culture dish). […] The AP-TGFα release signals were fitted to a four-parameter sigmoidal concentration-response curve, using the Prism 7 software (GraphPad Prism), and the pEC50 (equal to −log10 EC50) and Emax values were obtained.
# ETA receptor (wild type) = target: T2, ETA receptor (wild type) (Homo sapiens, UniProt P25101); test: as above
# T2 sequence (P25101 21-427): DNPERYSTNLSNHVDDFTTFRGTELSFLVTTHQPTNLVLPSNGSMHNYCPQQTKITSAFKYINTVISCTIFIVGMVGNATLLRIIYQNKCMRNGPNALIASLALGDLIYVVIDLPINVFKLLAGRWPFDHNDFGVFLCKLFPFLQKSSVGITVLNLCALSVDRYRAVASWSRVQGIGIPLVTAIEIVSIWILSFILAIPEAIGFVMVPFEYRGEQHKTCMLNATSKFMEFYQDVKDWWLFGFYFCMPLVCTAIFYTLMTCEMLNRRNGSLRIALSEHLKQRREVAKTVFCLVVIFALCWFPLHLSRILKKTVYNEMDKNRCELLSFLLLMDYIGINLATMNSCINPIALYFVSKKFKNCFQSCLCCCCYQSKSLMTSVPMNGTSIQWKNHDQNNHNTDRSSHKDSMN
# Procedure: (§1) The TGFα shedding assay, which measures the activation of Gq/11 and G12/13 signaling[24], was performed as described previously[22]. Briefly, a plasmid encoding an ETB construct with an internal FLAG epitope tag or an ETA construct was transfected, together with a plasmid encoding alkaline phosphatase (AP)-tagged TGFα (AP-TGFα), into HEK293A cells by using a polyethylenimine (PEI) transfection reagent (1 µg ETR plasmid, 2.5 µg AP-TGFα plasmid, and 25 µl of 1 mg per ml PEI solution per 10-cm culture dish). […] The AP-TGFα release signals were fitted to a four-parameter sigmoidal concentration-response curve, using the Prism 7 software (GraphPad Prism), and the pEC50 (equal to −log10 EC50) and Emax values were obtained.
# ETB-WT = target: T3, ETB-WT (Homo sapiens, UniProt P24530); test: TGFα shedding assay, inverse agonist activity (4 h incubation); details: for Emax: read-out: Emax ± SEM
# T3 sequence (P24530 27-442): T1 sequence (P24530 27-442)
# Procedure: as §1
# [1] = target: T4, ETB-L192^3.43Q (constitutively active ETB receptor) (Homo sapiens, UniProt P24530, L192Q); test: as above; details: for Emax: read-out: Emax ± SEM
# T4 sequence (P24530 27-442 L192Q): T1 sequence (P24530 27-442) with L166Q
# Procedure: as §1
# (§2) To measure the constitutive activity in a plasmid volume-dependent manner, HEK293 cells were seeded in a 96-well plate at a concentration of 4 × 10^5 cells per ml in Opti-MEM I Reduced Serum Media (Thermo Fisher Scientific), in a volume of 80 μl per well. […] After adding the AP reaction solution, the absorbances of the cells and the CM plates were measured at 20 min intervals. The AP-TGFα release signals were calculated as described above, and the signal in the mock-transfected conditions was set at the baseline.
# [2] = target: T5, constitutively active ETA receptor (ETA-L3.43Q) (Homo sapiens, UniProt P25101, L176Q); test: TGFα shedding assay, antagonist activity against ET-1 (0.5 nM)-induced AP-TGFα release
# T5 sequence (P25101 21-427 L176Q): T2 sequence (P25101 21-427) with L156Q
# Procedure: as §1, §2
# [3] = target: T6, constitutively active ETB receptor (ETB-L3.43Q) (Homo sapiens, UniProt P24530, L192Q); test: as above
# T6 sequence (P24530 27-442 L192Q): T1 sequence (P24530 27-442) with L166Q
# Procedure: as §1, §2
# ETA (WT) = target: T7, ETA (WT) (Homo sapiens, UniProt P25101); test: TGFα shedding assay, inverse agonist activity (4 h incubation)
# T7 sequence (P25101 21-427): T2 sequence (P25101 21-427)
# Procedure: as §1
# [4] = target: T8, ETA (L3.43Q) (constitutively active ETA receptor) (Homo sapiens, UniProt P25101, L176Q); test: as above; details: for change of the basal activity: ETA-L^3.43Q, Supplementary Fig. 6b, c
# T8 sequence (P25101 21-427 L176Q): T2 sequence (P25101 21-427) with L156Q
# Procedure: as §1, §2
# ETB receptor = target: ETB receptor; set-up: method as in PMID 8587424; details: read-out: IC50 as ETB-selective antagonist; cited from earlier work
# [5] = system: cold injury-mediated brain edema; set-up: method as in PMID 25000290, PMID 26174228; details: animal model; intracerebroventricular administration; cited from earlier work
smiles,measurement,setting,value
COc1ccccc1Oc1c(NS(=O)(=O)c2ccc(C(C)(C)C)cc2)nc(-c2ncccn2)nc1OCCC(=O)Nc1c(C)cccc1C [K-8794],pIC50 ± SEM,ETB receptor (wild type),8.06 ± 0.04
same,IC50,ETB receptor (wild type); read-out: IC50,0.0087 µM
same,IC50,"ETA receptor (wild type); Supplementary Fig. 5d, ETA (WT)",> 3 µM
same,Emax ± SEM,"ETB-WT; Table 3, ETB-WT, AP-TGFα release, spontaneous release set at baseline, 4 h",<2%
same,pEC50 (mean ± SEM),"[1]; Table 3, ETB-L192^3.43Q, 4 h incubation",9.21 ± 0.04
same,EC50,"[1]; Table 3, ETB-L192^3.43Q, 4 h incubation, reduction of basal activity for inverse agonists",0.00061 µM
same,Emax ± SEM,"[1]; Table 3, ETB-L192^3.43Q, AP-TGFα release, spontaneous release set at baseline, 4 h",−31.5 ± 2.0%
same,IC50,"[2]; Supplementary Fig. 5d, ETA (L3.43Q), ET-1 0.5 nM",> 3 µM
same,IC50,[3]; Supplementary Fig. 5d,0.0042 µM
same,pIC50 ± SEM,[3]; Supplementary Fig. 5d,8.37 ± 0.06
same,Emax,"ETA (WT); Supplementary Fig. 6c, ETA (WT), AP-TGFα release, baseline = no compound, 4 h",< 2%
same,Emax,"[4]; Supplementary Fig. 6c, ETA (L3.43Q), AP-TGFα release, baseline = no compound, 4 h",< 2%
COc1ccccc1Oc1c(NS(=O)(=O)c2ccc(C(C)(C)C)cc2)nc(-c2ncccn2)nc1OCCO [Bosentan],Emax,ETA (WT),< 2%
same,Emax,[4],< 2%
same,change of the basal activity,[4],did not change the basal activity
Cc1cc(C)cc(C(=O)N(C)C(Cc2ccc(-c3ccccc3)cc2)C(=O)NC(Cc2c[nH]c3ccccc23)C(=O)O)c1 (centres unmarked) [IRL2500],IC50,"ETA receptor (wild type); IC50 for the ETA receptor, text on Fig. 1a",> 3 µM
same,IC50,"ETA receptor (wild type); pIC50 ± SEM ETA, Fig. 1a, HEK293 cells",< 3.16 µM
same,Emax,ETB-WT,< 2%
same,change of the receptor activation level (ligand-induced AP-TGFα release),"ETB-WT; wild-type ETB, 4 h-incubation, Fig. 4d",did not change the receptor activation level
same,Emax,[1],-27 ± 1.1%
same,IC50,ETB receptor,0.0012 µM
same,effect on cold injury-mediated brain edema and disruption of the blood–brain barrier,[5],attenuated the cold injury-mediated brain edema and disruption of the blood–brain barrier
same,IC50,[2],> 3 µM
same,Emax,ETA (WT),< 2%
same,Emax,[4],< 2%
same,change of the basal activity,[4],did not change the basal activity
CCCC[C@@H](NC(=O)[C@@H](Cc1cn(C(=O)OC)c2ccccc12)NC(=O)[C@H](CC(C)(C)C)NC(=O)N1[C@H](C)CCC[C@@H]1C)C(=O)O [BQ-788],IC50,ETB receptor (wild type); read-out: IC50,0.11 µM
same,IC50,ETB receptor (wild type); read-out: pIC50 ± SEM (converted),0.107 µM
same,IC50,"ETA receptor (wild type); IC50, Supplementary Fig. 5d, ETA (WT)",> 10 µM
same,Emax,ETB-WT,< 2%
same,EC50,"[1]; EC50, Table 3, ETB-L192^3.43Q, 4 h incubation, reduction of basal activity for inverse agonists",0.00096 µM
same,EC50,"[1]; pEC50 (mean ± SEM), Table 3, ETB-L192^3.43Q, 4 h incubation",0.000955 µM
same,Emax,[1],-18.5 ± 0.7%
same,IC50,[2],> 10 µM
same,IC50,"[3]; IC50, Supplementary Fig. 5d",0.075 µM
same,IC50,"[3]; pIC50 ± SEM, Supplementary Fig. 5d",0.0741 µM
same,Emax,ETA (WT),< 2%
same,Emax,[4],< 2%
